Legend:
Type in all cases: biochemical
[1] = Activity against free radicals, Method C (deoxyribose oxidation in the absence of EDTA); conditions: as Method B in the absence of EDTA
Experimental: (§1) The effectiveness of the test substances against free radicals was tested by various chemical and biochemical methods: • Method A A first test was carried out using diphenylpicrylhydrazyl (DPPH°) which is a relatively stable radical that forms a purple-colored solution. The optical density (DO) at 513 nm was determined. • Method B Hydroxyl radicals were released from hydrogen peroxide in the presence of iron(II) ions and EDTA and were used to oxidize deoxyribose. The oxidation product forms a pink-colored compound with thiobarbituric acid. Its concentration corresponds to the optical density at 532 nm. […] The superoxide anions dismute into hydrogen peroxide and oxygen either spontaneously or in the presence of Superoxid Dismutase. The quantity of superoxide anion can be determined by NBT reduction via the optical density at 490 nm. A test was conducted to determine whether fewer superoxide anions are generated or more anions are destroyed in the presence of the test substances. The results are set out in Table 1 and represent the EC50 values in % (w/v).

[2] = Activity against free radicals, Method D (xanthine oxidase, NBT reduction); conditions: optical density at 490 nm
Experimental: as §1

[3] = Activity against free radicals, Method B (hydroxyl radicals, deoxyribose oxidation with EDTA); conditions: hydrogen peroxide, iron(II) ions and EDTA, optical density at 532 nm
Experimental: as §1

[4] = Activity against free radicals, Method A (DPPH° test); conditions: optical density at 513 nm
Experimental: as §1

Row | Effect against free radicals, Method C, EC50 [1] | Effect against free radicals, Method D, EC50 [2] | Effect against free radicals, Method B, EC50 [3] | Effect against free radicals, Method A, EC50 [4] | Compound
1 | 0.9 % (w/v) | 0.591 % (w/v) | 0.261 % (w/v) | 0.0013 % (w/v) | O=C1O[C@H]([C@@H](O)CO)C(O)=C1O [Ascorbic acid]
2 |  | No effect |  | 0.0067 % (w/v) | Tocopherol

From patent US20050095305A1, “Anti-aging agents” (priority 2001, published 2005)
